# Test results published in patent US7998965B2, “Glutamate aggrecanase inhibitors” (Wyeth LLC, priority 2005, dated 2011).
# Target: T1, purified recombinant human Aggrecanase-1 (rAgg1) (Homo sapiens, UniProt O75173)
# T1 sequence (O75173 213-837): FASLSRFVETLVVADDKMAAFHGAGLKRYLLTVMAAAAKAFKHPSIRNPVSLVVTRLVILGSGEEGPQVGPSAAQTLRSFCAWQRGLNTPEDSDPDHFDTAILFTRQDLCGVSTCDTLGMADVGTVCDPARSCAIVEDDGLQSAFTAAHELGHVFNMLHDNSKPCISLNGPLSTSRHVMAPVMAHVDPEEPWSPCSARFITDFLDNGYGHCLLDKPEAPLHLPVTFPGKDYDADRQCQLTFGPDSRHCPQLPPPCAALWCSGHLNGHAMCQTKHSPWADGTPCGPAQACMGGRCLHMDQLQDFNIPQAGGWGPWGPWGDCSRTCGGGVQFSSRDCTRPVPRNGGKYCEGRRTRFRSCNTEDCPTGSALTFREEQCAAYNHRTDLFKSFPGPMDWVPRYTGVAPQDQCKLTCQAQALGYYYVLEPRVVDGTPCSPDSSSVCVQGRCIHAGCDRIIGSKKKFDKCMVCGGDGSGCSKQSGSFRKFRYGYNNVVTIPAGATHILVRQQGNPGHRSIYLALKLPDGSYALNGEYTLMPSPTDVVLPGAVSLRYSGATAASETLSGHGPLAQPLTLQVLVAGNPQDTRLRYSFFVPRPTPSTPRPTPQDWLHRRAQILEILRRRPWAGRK
# Test: In vitro fluorescence screen for Aggrecanase-1 inhibitors
# Assay type: biochemical
# Details: Table 1; read-out: Agg1 IC50
row,IC50 [nM],SMILES
1,290,"O=C(O)CC[C@H](NC(=O)c1ccc(-c2ccccc2)cc1)C(=O)NCc1ccco1 [Example 8P, N^2-(1,1′-biphenyl-4-ylcarbonyl)-N^1-(2-furylmethyl)-L-α-glutamine]"
2,> 50000,"CCCCCCNC(=O)[C@H](CCC(=O)O)NC(=O)c1cccc2c1Cc1ccccc1-2 [Example 8PPPP, N^2-(9H-fluoren-1-ylcarbonyl)-N^1-hexyl-L-α-glutamine]"
3,330,"O=C(O)CC[C@H](NC(=O)c1ccc(-c2ccccc2)cc1)C(=O)NCc1ccncc1 [Example 8QQQ, N^2-(biphenyl-4-ylcarbonyl)-N^1-(pyridin-4-ylmethyl)-L-α-glutamine]"
4,9600,"CCCCCCNC(=O)[C@H](CCC(=O)O)NC(=O)c1ccc(Oc2ccccc2)cc1 [Example 8QQQQ, N^1-hexyl-N^2-(4-phenoxybenzoyl)-L-α-glutamine]"
5,122,"CCCCCCNC(=O)[C@H](CCC(=O)O)NC(=O)c1ccc2c(c1)C(=O)c1ccccc1-2 [Example 8RRRR, N^1-hexyl-N^2-[(9-oxo-9H-fluoren-2-yl)carbonyl]-L-α-glutamine]"
6,3600,"O=C(O)CC[C@H](NC(=O)c1ccc2ccccc2c1)C(=O)NCCCc1ccccc1 [Example 8RRRRRR, N^2-2-naphthoyl-N^1-(3-phenylpropyl)-L-α-glutamine]"
7,> 10000,"CC(C)(NC(=O)[C@H](CCC(=O)O)NC(=O)c1ccc(-c2ccccc2)cc1)c1ccccc1 [Example 8TTT, N^2-(biphenyl-4-ylcarbonyl)-N^1-(1-methyl-1-phenylethyl)-L-α-glutamine]"
8,17300,"O=C(O)CC[C@H](NC(=O)c1ccc(Oc2ccccc2)cc1)C(=O)NCCCc1ccccc1 [Example 8TTTTTT, N^2-(4-phenoxybenzoyl)-N^1-(3-phenylpropyl)-L-α-glutamine]"
9,4000,"O=C(O)CC[C@H](NC(=O)c1ccc(Nc2ncccn2)cc1)C(=O)NCc1ccccc1 [Example 8UUUUUU, N^1-benzyl-N^2-[4-(pyrimidin-2-ylamino)benzoyl]-L-α-glutamine]"
10,46,"O=C(O)CC[C@H](NC(=O)c1ccc2c(c1)Cc1ccccc1-2)C(=O)NCCCCCCO [Example 8VVVVVV, N^2-(9H-fluoren-2-ylcarbonyl)-N^1-(6-hydroxyhexyl)-L-α-glutamine]"

# The next lines start with the compound.
row,SMILES,IC50 [nM]
1,"CC(C)NC(=O)[C@H](CCC(=O)O)NC(=O)c1ccc(-c2ccccc2)cc1 [Example 8PPP, N^2-(biphenyl-4-ylcarbonyl)-N^1-isopropyl-L-α-glutamine]",130
2,"COc1cccc(CNC(=O)[C@H](CCC(=O)O)NC(=O)Cc2ccc(-c3ccccc3)cc2)c1 [Example 8PPPPPP, N^2-(1,1′-biphenyl-4-ylacetyl)-N^1-(3-methoxybenzyl)-L-α-glutamine]",> 33000
3,"O=C(O)CC[C@H](NC(=O)c1ccc(-c2ccccc2)cc1)C(=O)Nc1ccccc1Cc1ccccc1 [Example 8QQQQQQ, N^1-(2-benzylphenyl)-N^2-(1,1′-biphenyl-4-ylcarbonyl)-L-α-glutamine]",690
4,"O=C(O)CC[C@H](NC(=O)c1ccc(C(=O)c2ccccc2)cc1)C(=O)NCc1ccccc1 [Example 8SSSS, N^2-(4-benzoylbenzoyl)-N^1-benzyl-L-α-glutamine]",> 200000
5,"O=C(O)CC[C@H](NC(=O)c1ccc2c(c1)C(=O)c1ccccc1-2)C(=O)NCCCc1ccccc1 [Example 8SSSSSS, N^2-[(9-oxo-9H-fluoren-2-yl)carbonyl]-N^1-(3-phenylpropyl)-L-α-glutamine]",146
6,"O=C(O)CC[C@H](NC(=O)c1ccc(-c2ccccc2)cc1)C(=O)NCCc1ccccc1F [Example 8TT, N^2-(biphenyl-4-ylcarbonyl)-N^1-[2-(2-fluorophenyl)ethyl]-L-α-glutamine]",300
7,"O=C(O)CC[C@H](NC(=O)c1ccc(-c2ccccc2)cc1)C(=O)NCCc1ccc(Cl)cc1 [Example 8UU, N^2-(biphenyl-4-ylcarbonyl)-N^1-[2-(4-chlorophenyl)ethyl]-L-α-glutamine]",200
